# Measurements published in PMC9648375, “Identification of the first-in-class dual inhibitors of human DNA topoisomerase IIα and indoleamine-2,3-dioxygenase 1 (IDO 1) with strong anticancer properties” (Journal of Enzyme Inhibition and Medicinal Chemistry, 2022).
# Like-named read-outs stand apart in the source and are kept apart here.
# Assays:
# [1] = biological target: T1, human DNA topoisomerase IIα (Homo sapiens, UniProt P11388); assay: Human topoisomerase IIα relaxation assay; format: biochemical; details: agarose gel, densitometry; read-out: IC50 ± SD, relaxation activity of human DNA topoisomerase IIα
# T1 construct: purchased Inspiralis Ltd, Norwich, UK
# T1 sequence (P11388 whole entry): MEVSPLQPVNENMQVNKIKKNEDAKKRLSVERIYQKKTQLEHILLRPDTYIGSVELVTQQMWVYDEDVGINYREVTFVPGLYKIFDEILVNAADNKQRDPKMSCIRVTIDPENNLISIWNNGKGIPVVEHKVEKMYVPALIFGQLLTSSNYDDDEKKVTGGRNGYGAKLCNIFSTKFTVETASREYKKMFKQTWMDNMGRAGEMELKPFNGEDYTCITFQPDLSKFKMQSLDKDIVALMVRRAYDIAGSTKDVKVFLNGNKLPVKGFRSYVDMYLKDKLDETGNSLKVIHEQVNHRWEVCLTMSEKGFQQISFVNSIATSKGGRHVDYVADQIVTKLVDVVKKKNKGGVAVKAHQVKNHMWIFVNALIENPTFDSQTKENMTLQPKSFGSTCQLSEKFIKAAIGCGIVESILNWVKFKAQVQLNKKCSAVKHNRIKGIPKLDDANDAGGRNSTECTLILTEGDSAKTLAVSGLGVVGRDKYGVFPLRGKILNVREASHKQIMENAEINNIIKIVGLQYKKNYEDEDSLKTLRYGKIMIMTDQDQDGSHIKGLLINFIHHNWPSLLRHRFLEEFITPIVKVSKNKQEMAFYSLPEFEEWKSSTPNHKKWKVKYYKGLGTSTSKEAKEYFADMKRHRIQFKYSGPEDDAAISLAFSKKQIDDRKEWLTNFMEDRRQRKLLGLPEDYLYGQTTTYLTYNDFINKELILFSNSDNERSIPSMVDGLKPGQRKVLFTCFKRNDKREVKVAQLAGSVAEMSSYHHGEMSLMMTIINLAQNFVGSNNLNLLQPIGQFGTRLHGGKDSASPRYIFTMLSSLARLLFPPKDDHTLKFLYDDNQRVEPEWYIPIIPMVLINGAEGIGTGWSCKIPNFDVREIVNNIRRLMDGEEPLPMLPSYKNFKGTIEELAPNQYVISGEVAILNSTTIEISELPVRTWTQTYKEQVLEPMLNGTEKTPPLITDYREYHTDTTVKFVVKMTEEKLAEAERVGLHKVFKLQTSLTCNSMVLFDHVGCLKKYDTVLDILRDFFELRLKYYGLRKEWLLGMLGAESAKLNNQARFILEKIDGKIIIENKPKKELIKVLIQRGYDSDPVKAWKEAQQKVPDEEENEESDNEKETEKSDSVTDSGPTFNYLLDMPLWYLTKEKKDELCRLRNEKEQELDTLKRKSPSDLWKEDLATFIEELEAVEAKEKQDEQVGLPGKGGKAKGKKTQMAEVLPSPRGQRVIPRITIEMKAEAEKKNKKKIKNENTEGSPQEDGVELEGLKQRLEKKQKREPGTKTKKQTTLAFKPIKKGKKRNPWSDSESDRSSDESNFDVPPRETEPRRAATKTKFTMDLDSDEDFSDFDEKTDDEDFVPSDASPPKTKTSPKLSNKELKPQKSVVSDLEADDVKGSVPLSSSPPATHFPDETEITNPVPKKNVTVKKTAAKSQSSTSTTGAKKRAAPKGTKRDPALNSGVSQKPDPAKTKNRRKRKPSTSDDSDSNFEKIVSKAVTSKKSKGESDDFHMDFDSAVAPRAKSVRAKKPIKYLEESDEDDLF
# Protocol: As relaxation of supercoiled DNA (scDNA) is one of numerous functions of topoisomerase IIα, so the appearance/disappearance of relaxed DNA bands during agarose gel electrophoresis can be used to identify compounds that inhibit the enzyme.
# Briefly, the increased concentrations of the compounds were mixed with the reaction mixture, incubated according to the protocol and, after reaction termination, the samples were analysed by electrophoresis using 1% agarose gel containing 0.5 mg/mL of ethidium bromide in Tris-Acetate-EDTA (TAE) buffer. Visualisation of the bands was performed using an enhanced chemiluminescence system (Syngene G:BOX Chemi XT4, Cambridge, UK). For the quantitative determination of topoisomerase II inhibition, images were densitometrically scanned.
# The inhibition of topoisomerase II was calculate from the equation: % Inhibition=Intensity of compound−treated DNA/Intensity of vehicle−treated control DNA×100
# MTT assay = format: cell-based; details: human, HEK-293 cells (normal reference cell line), HEK-293 (normal cells), read-out: IC50, cytotoxicity
# Protocol: (§1) Therefore, the whole set of compounds were tested by using MTT assay in order to check their overall cytotoxic effect. The growth of cells was monitored after 24 and 48 h of incubation with the increased concentrations (1–100 µg/ml) of the thiosemicarbazide derivatives. […] This confirms that the compounds tested combine different mechanisms of anticancer activity, and DNA topoisomerase II inhibition is only one of them.
# (§2) Cytotoxicity of the synthesised compounds were examined against a panel of the cancer cell lines, MCF-7 (estrogen-dependent human breast cancer cells), MDA-MB-231 (oestrogen-independent human breast cancer cells), SCC- 25 (squamous cell carcinoma of the tongue), FaDu (squamous cell carcinoma of the pharynx), A- 549 (human lung carcinoma), AGS (human gastric adenocarcinoma), LS-180, HT-29 (colon cancer cell lines), T98G (glioblastoma cells), A375 (melanoma cells). Human embryonic kidney (HEK-293) cells and human normal skin fibroblasts (CRL-2072) were used as reference cell lines. The investigated cell lines were obtained from American Type Culture Collection (ATCC; Manassas, VA, USA). A375, MCF-7, MDA-MB-231, T98G cells were cultured in Dulbecco’s Modified Eagle’s Medium (DMEM) (Sigma Aldrich, St. Louis, MO, USA) supplemented with 10% heat inactivated foetal bovine serum (FBS), penicillin (100 U/mL), and streptomycin (100 μg/mL). SCC-25 cells were cultured in 1:1 mixture of Dulbecco’s modified Eagle’s medium and Ham’s F12 Medium (Sigma Aldrich, St. Louis, MO, USA) supplemented with 400 ng/ml hydrocortisone, 10% FBS, penicillin (100 U/mL), and streptomycin (100 μg/mL). A549 and AGS cells were maintained in F-12K Medium (Sigma Aldrich, St. Louis, MO, USA). LS-180 and FaDu cells were cultured in Eagle’s Minimum Essential Medium. HT-29 cells were maintained in McCoy’s 5 A Medium (Sigma Aldrich, St. Louis, MO, USA) supplemented with 10%FBS, penicillin (100 U/mL), and streptomycin (100 μg/mL). All the cells were maintained at 37 °C in a humidified atmosphere of 5% CO2.
# (§3) The synthesised compounds were dissolved in DMSO in order to obtain stock solutions. At the day of the experiment, the suspension of cells (1 × 10^5 cells/mL) in the respective medium was applied to a 96-well plate at 100 μL per well. […] The control cells were cultured only with a medium containing 2% FBS. Cytotoxicity of DMSO was also checked at concentrations present in respective dilutions of stock solution. After 24 h (or 48 h) of incubation, 15 μL of MTT working solution (5 mg/mL in PBS) was added to each well. The plate was incubated for 3 h. Subsequently, 100 μL of 10% SDS solution was added to each well. Cells were incubated overnight at 37 °C to dissolve the precipitated formazan crystals. The concentration of the dissolved formazan was evaluated by measuring the absorbance at λ = 570 nm, using a microplate reader (Epoch, BioTek Instruments, Inc., Winooski, VT, USA). At least two independent experiments were performed in triplicates. The results of the MTT assay were expressed as mean ± SD. […] IC50 values of the investigated derivatives and standards were calculated using the IC50 calculator.[23]
# A375 (melanoma cells) = assay: MTT assay; format: cell-based; details: Homo sapiens, read-out: IC50, cytotoxicity
# Protocol: as §1, §2, §3
# [2] = tested on: A549 (human lung carcinoma); assay: MTT assay; format: cell-based; details: read-out: IC50, cytotoxicity
# Protocol: as §1, §2, §3
# [3] = tested on: AGS (human gastric adenocarcinoma); assay: MTT assay; format: cell-based; details: read-out: IC50, cytotoxicity
# Protocol: as §1, §2, §3
# [4] = tested on: FaDu (squamous cell carcinoma of the pharynx); assay: MTT assay; format: cell-based; details: Homo sapiens, read-out: IC50, cytotoxicity
# Protocol: as §1, §2, §3
# [5] = tested on: HT-29 (colon cancer cell line); assay: MTT assay; format: cell-based; details: Homo sapiens, HT-29, MTT, read-out: IC50, cytotoxicity
# Protocol: as §1, §2, §3
# [6] = tested on: LS180 (colon cancer cell line); assay: MTT assay; format: cell-based; details: Homo sapiens, read-out: IC50, cytotoxicity
# Protocol: as §1, §2, §3
# [7] = tested on: MCF-7 (estrogen-dependent human breast cancer cells); assay: MTT assay; format: cell-based; details: MCF7, MCF-7, MTT, read-out: IC50, cytotoxicity
# Protocol: as §1, §2, §3
# [8] = tested on: MDA-MB-231 (estrogen-independent human breast cancer cells); assay: MTT assay; format: cell-based; details: MDA-MB-231, MTT, read-out: IC50, cytotoxicity
# Protocol: as §1, §2, §3
# [9] = tested on: SCC-25 (squamous cell carcinoma of the tongue); assay: MTT assay; format: cell-based; details: Homo sapiens, SCC-25, MTT, read-out: IC50, cytotoxicity
# Protocol: as §1, §2, §3
# [10] = tested on: T98G (glioblastoma cells); assay: MTT assay; format: cell-based; details: Homo sapiens, read-out: IC50, cytotoxicity
# Protocol: as §1, §2, §3
SMILES,IC50 at 24 h (MTT assay) [µg/mL],IC50 at 48 h (MTT assay) [µg/mL],"IC50 (A375 (melanoma cells); A-375, 24h) [µg/mL]","IC50 (A375 (melanoma cells); A-375, 48 h) [µg/mL]",IC50 ([2]; 24h) [µg/mL],IC50 ([2]; 48h) [µg/mL],IC50 ([3]; 24h) [µg/mL],IC50 ([3]; 48 h) [µg/mL],IC50 ([4]; 24h) [µg/mL],IC50 ([4]; 48 h) [µg/mL],IC50 ([5]; 24h) [µg/mL],IC50 ([5]; 48 h) [µg/mL],IC50 ([6]; 24h) [µg/mL],IC50 ([6]; 48 h) [µg/mL],IC50 ([7]; 24h) [µg/mL],IC50 ([7]; 48h) [µg/mL],IC50 ([8]; 24h) [µg/mL],IC50 ([8]; 48h) [µg/mL],IC50 ([9]; 24h) [µg/mL],IC50 ([9]; 48 h) [µg/mL],also measured
"CC(C)c1cccc(C(C)C)c1NC(=S)NNC(=O)Cc1cccc2ccccc12 [Compound 1, 4-(2,6-Diisopropylphenyl)-1-[(naphth-1-yl)acetyl]thiosemicarbazide]",17.6,9.61,4.57,1.82,3.87,2.27,5.92,2.69,7.26,2.01,8.96,5.33,4.57,2.54,9.82,8.45,9.21,8.04,7.06,5.22,IC50 [1]: 71 ± 4.81 µM; IC50 ([10]; 24h): 6.98 µg/mL; IC50 ([10]; 48h): 2.27 µg/mL; melting point: 140 to 142 °C
"O=C(Cc1cccc2ccccc12)NNC(=S)Nc1ccc(N=Nc2ccccc2)cc1 [Compound 2, 4-(4-Phenylazophenyl)-1-[(naphth-1-yl)acetyl]thiosemicarbazide]",15.6,10,8.96,2.47,5.84,5.78,5.32,2.96,2.75,2.54,8.96,5.33,2.87,2.24,9.18,8.85,7.64,7.07,4.73,3.12,IC50 [1]: 43.1 ± 2.27 µM; IC50 ([10]; 24h): 5.53 µg/mL; IC50 ([10]; 48h): 4.85 µg/mL; melting point: 178 to 180 °C
"O=C(NNC(=S)Nc1ccc(N=Nc2ccccc2)cc1)c1ccccc1[N+](=O)[O-] [Compound 3, 4-(4-Phenylazophenyl)-1-(2-nitrobenzoyl)thiosemicarbazide]",27.5,9.19,1.8,0.56,5.37,5.13,5.54,4.31,2.49,2.18,7.37,3.77,3.12,2.7,7.67,5.48,10.5,6.02,4.76,3.87,IC50 [1]: 76.8 ± 4.85 µM; IC50 ([10]; 24h): 3.35 µg/mL; IC50 ([10]; 48h): 2.94 µg/mL; melting point: 168 to 170 °C
"COc1cc([C@@H]2c3cc4c(cc3[C@@H](O[C@@H]3O[C@@H]5CO[C@@H](C)O[C@H]5[C@H](O)[C@H]3O)[C@H]3COC(=O)[C@H]23)OCO4)cc(OC)c1O [Etoposide, etoposide, reference compound]",37.9,29.1,10.2,6.48,> 100,15.6,50.8,29.8,12.5,10.7,94.5,11.3,> 100,11.7,> 100,6.15,> 100,40.3,59.1,23.7,IC50 ([10]; 24h): > 100 µg/mL; IC50 ([10]; 48h): 17.1 µg/mL
